Where a SMILES comes first, the peptide text is derived from it. [ ]: non-standard residue; d: D form. αMeP = C[C@@]1(C(=O)O)CCCN1
Tests used:
Assay type in all cases: physicochemical
[1] = Long-term (6 month) chemical stability, total impurities by HPLC; conditions: for Total Impurities: 25 ± 2° C./60 ± 5% RH
Experimental: The long-term (6 month) chemical stability of Form A and amorphous trofinetide were tested under the same conditions: 25±2° C./60±5% relative humidity (RH). […] [table]

[2] = Stability under humidity conditions (two days exposure, XRPD / water content)
[3] = Dynamic vapor sorption-desorption (DVS) analysis
Experimental: DVS analysis was carried out TA Instruments Q5000 Dynamic Vapor Sorption analyzer. The instrument was calibrated with standard weights and a sodium bromide standard for humidity. Samples were analyzed at 25° C. with a maximum equilibration time of 60 minutes in 10% relative humidity (RH) steps from 5 to 95% RH (adsorption cycle) and from 95 to 5% RH (desorption cycle). Form A is non-hygroscopic.

| SMILES | Total Impurities ([1]; 1 month) [%] | Total Impurities ([1]; 3 months) [%] | Total Impurities ([1]; 6 months) | Total Impurities ([1]; Initial) | Stability under humidity conditions ([2]; large range of humidity conditions) | Solid form change under extreme dry conditions (XRPD) ([2]; open container exposed under 0% RH for two days) | Hygroscopicity ([3]; 25° C.) | Solid form after DVS by XRPD ([3]; after DVS) | Moisture uptake (adsorption cycle) ([3]; exposed from 5% RH to 95% RH) | Moisture loss (desorption cycle) ([3]; exposed from 95% RH to 5% RH) | Long-term chemical stability compared with amorphous trofinetide ([1]; 6 month, 25±2° C./60±5% RH) |
| --- | --- | --- | --- | --- | --- | --- | --- | --- | --- | --- | --- |
| C[C@@]1(C(=O)N[C@@H](CCC(=O)O)C(=O)O)CCCN1C(=O)CN [amorphous trofinetide (Batch 1), glycyl-L-2-methylprolyl-L-glutamic acid] (H-Gly-[αMeP]-Glu-OH) | 0.3 | 0.8 | 1.0% | 0.3% | – | – | – | – | – | – | – |
| C[C@@]1(C(=O)N[C@@H](CCC(=O)O)C(=O)O)CCCN1C(=O)CN [amorphous trofinetide (Batch 2), glycyl-L-2-methylprolyl-L-glutamic acid] (H-Gly-[αMeP]-Glu-OH) | – | 0.6 | 0.9% | 0.2% | – | – | – | – | – | – | – |
| C[C@@]1(C(=O)N[C@@H](CCC(=O)O)C(=O)O)CCCN1C(=O)CN [Form A, (2S)-2-[[(2S)-1-(2-aminoacetyl)-2-methylpyrrolidine-2-carbonyl]amino]pentanedioic acid] (H-Gly-[αMeP]-Glu-OH) | 0.0 | 0.03 | <PLOQ | <PLOQ | stable under a large range of humidity conditions | lost the water and became disordered | non-hygroscopic | remained as trofinetide Form A | little moisture uptake | little moisture loss | more stable than amorphous trofinetide |
| C[C@@]1(C(=O)N[C@@H](CCC(=O)O)C(=O)O)CCCN1C(=O)CN [amorphous trofinetide (Batch 3), glycyl-L-2-methylprolyl-L-glutamic acid] (H-Gly-[αMeP]-Glu-OH) | 0.2 | 0.6 | 0.8% | 0.2% | – | – | – | – | – | – | – |
